Measurements: US20260070945A1, “MACROCYCLIC IMMUNOMODULATORS” (Bristol-Myers Squibb Company, priority 2022, published 2026)
*1 amine or outer side, *2 acyl side, *3 side chain or, on linkers, in order; H or OH if unused. Where a SMILES comes first, the peptide text is derived from it. Bridges are numbered along the chain shown (N, C = ends). [ ]: non-standard residue; d: D form. The star is where a group is joined. ξ: configuration not given here. Phe(4-CF3) = N[C@@H](Cc1ccc(C(F)(F)F)cc1)C(=O)O; Phe(4-COOH) = N[C@@H](Cc1ccc(C(=O)O)cc1)C(=O)O; Bip = N[C@@H](Cc1ccc(-c2ccccc2)cc1)C(=O)O; Phe(3-Me) = Cc1cccc(C[C@H](N)C(=O)O)c1; βAsp = O=C(O)[C@H](CC(=O)[*:2])N[*:1]; Val(3-OH) = CC(C)(O)[C@H](N)C(=O)O; aIle = CC[C@@H](C)[C@H](N)C(=O)O; 4Pal = N[C@@H](Cc1ccncc1)C(=O)O; Cha = N[C@@H](CC1CCCCC1)C(=O)O; Cit = NC(=O)NCCC[C@H](N)C(=O)O; Ile(3ξ) = CCC(C)[C@H](N)C(=O)O; Thr(3ξ) = CC(O)[C@H](N)C(=O)O; 12Ado = NCCCCCCCCCCCC(=O)O; dOrn = NCCC[C@@H](N)C(=O)O; Carboxymethyl = O=C(O)C*; NMeA = CN[C@@H](C)C(=O)O; Orn = NCCC[C@H](N)C(=O)O; dDap = NC[C@@H](N)C(=O)O; Aun = NCCCCCCCCCCC(=O)O; Dab = NCC[C@H](N)C(=O)O; Dap = NC[C@H](N)C(=O)O; AEEA = NCCOCCOCC(=O)O; Sar = CNCC(=O)O

molecular target: T1, PD-1/PD-L1 interaction (PE-labeled human PD-L1-Ig binding to Jurkat cell line over-expressing human PD-1) (Homo sapiens, UniProt Q15116); experiment: Jurkat-PD-1 Cell Binding High-Content Screening Assay (CBA); conditions: Jurkat-hPD-1 cells, PE-labeled PD-L1-Ig 20 nM final; read-out: Jurkat HPD1 PDL1 IC50
T1 construct: expressed in transfected cells; host or cells: Jurkat
Summary of the method: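 Binding of 20 nM (final) PE-tagged PD-L1-Ig to compound-pretreated Jurkat-hPD-1 cells was measured by high-content imaging after 1 h. Pretreatment ran 2 h at 37 °C in DMEM with 10% fetal calf serum.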

T1 sequence (Q15116 25-288): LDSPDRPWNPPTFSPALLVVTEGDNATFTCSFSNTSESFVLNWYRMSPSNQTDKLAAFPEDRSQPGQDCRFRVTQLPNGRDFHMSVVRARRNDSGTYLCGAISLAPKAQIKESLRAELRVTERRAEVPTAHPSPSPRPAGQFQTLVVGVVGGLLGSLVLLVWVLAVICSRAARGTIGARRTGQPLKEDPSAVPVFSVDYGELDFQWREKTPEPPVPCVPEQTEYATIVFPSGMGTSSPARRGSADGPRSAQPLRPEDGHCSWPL

| IC50 | SMILES |
| --- | --- |
| 128 nM | Cc1cccc(C[C@@H]2NC(=O)[C@H](CC(=O)O)NC(=O)[C@H](Cc3ccc(OCC(=O)O)cc3)NC(=O)[C@H]([C@@H](C)O)NC(=O)CSC[C@@H](C(=O)N[C@@H](CCCN)C(=O)NCCOCCOCC(=O)NCCCCCCCCCCC(=O)O)NC(=O)[C@H](CCC(=O)O)NC(=O)[C@H](C(C)C)NC(=O)[C@H](CC3CCCCC3)NC(=O)[C@H](CC(N)=O)NC(=O)[C@@H](CC(C)C)NC(=O)[C@H](C)N(C)C(=O)[C@H](Cc3ccc(OCC(=O)O)cc3)NC(=O)[C@H](Cc3ccc(-c4ccccc4)cc3)NC(=O)[C@H](Cc3ccc(OCC(=O)O)cc3)NC2=O)c1 [Example 1366] ({CH2CO}-TY(Carboxymethyl)D[Phe(3-Me)]Y(Carboxymethyl)[Bip]Y(Carboxymethyl)[NMeA][dL]N[Cha]VEC[Orn][AEEA][Aun]-OH; thioether N-14) |
| 8.3 nM | CC(C)C[C@@H]1NC(=O)[C@H](Cc2c[nH]c3ccccc23)NC(=O)[C@H](CC(=O)O)NC(=O)[C@H](Cc2ccncc2)NC(=O)[C@H](Cc2ccc(OCC(=O)O)cc2)NC(=O)CSC[C@@H](C(=O)N[C@@H](CCCN)C(=O)NCCOCCOCC(=O)NCCCCCCCCCCC(=O)O)NC(=O)[C@H](CO)NC(=O)[C@H](C(C)C)NC(=O)[C@H](CC2CCCCC2)NC(=O)[C@H](CCN)NC(=O)[C@@H](CC(C)C)NC(=O)[C@H](C)N(C)C(=O)[C@H](C(C)C)NC(=O)[C@H](Cc2ccc(-c3ccccc3)cc2)NC1=O [Example 1090] ({CH2CO}-Y(Carboxymethyl)[4Pal]DWL[Bip]V[NMeA][dL][Dab][Cha]VSC[Orn][AEEA][Aun]-OH; thioether N-14) |
| 8.6 nM | Cc1cccc(C[C@@H]2NC(=O)[C@H](CC(=O)O)NC(=O)[C@H](Cc3ccncc3)NC(=O)[C@H](Cc3ccc(OCC(=O)O)cc3)NC(=O)CSC[C@@H](C(=O)N[C@@H](CCN)C(=O)NCCOCCOCC(=O)NCCCCCCCCCCC(=O)O)NC(=O)[C@H]([C@@H](C)O)NC(=O)[C@H](C(C)C)NC(=O)[C@H](CC3CCCCC3)NC(=O)[C@H](CCN)NC(=O)[C@@H](CC(C)C)NC(=O)[C@H](C)N(C)C(=O)[C@H](Cc3ccc(OCC(=O)O)cc3)NC(=O)[C@H](Cc3ccc(-c4ccccc4)cc3)NC(=O)[C@H](Cc3ccc(OCC(=O)O)cc3)NC2=O)c1 [Example 1360] ({CH2CO}-Y(Carboxymethyl)[4Pal]D[Phe(3-Me)]Y(Carboxymethyl)[Bip]Y(Carboxymethyl)[NMeA][dL][Dab][Cha]VTC[Dab][AEEA][Aun]-OH; thioether N-14) |
| 16.5 nM | Cc1cccc(C[C@@H]2NC(=O)[C@H](CC(=O)O)NC(=O)[C@H](Cc3ccc(OCC(=O)O)cc3)NC(=O)[C@H](CN)NC(=O)CSC[C@@H](C(=O)N[C@@H](CCCN)C(=O)N[C@@H](CO)C(=O)NCCCCCCCCCCCC(=O)O)NC(=O)[C@H](C(C)O)NC(=O)[C@H](C(C)C)NC(=O)[C@H](CC3CCCCC3)NC(=O)[C@H](CCN)NC(=O)[C@@H](CC(C)C)NC(=O)[C@H](C)N(C)C(=O)[C@H](CCCNC(N)=O)NC(=O)[C@H](Cc3ccc(-c4ccccc4)cc3)NC(=O)[C@H](C(C)C)NC2=O)c1 (stereo partly drawn) [Example 2413] ({CH2CO}-[Dap]Y(Carboxymethyl)D[Phe(3-Me)]V[Bip][Cit][NMeA][dL][Dab][Cha]V[Thr(3ξ)]C[Orn]S[12Ado]-OH; thioether N-14) |
| 16.9 nM | CC[C@@H](C)[C@@H]1NC(=O)[C@H](Cc2ccc(-c3ccccc3)cc2)NC(=O)[C@H](CC(C)C)NC(=O)[C@H](Cc2c[nH]c3ccccc23)NC(=O)[C@H](CC(=O)O)NC(=O)[C@H](Cc2ccc(C(=O)O)cc2)NC(=O)[C@H](Cc2ccc(OCC(=O)O)cc2)NC(=O)CSC[C@@H](C(=O)NCCOCCOCC(=O)N[C@H](CCCN)C(=O)NCCCCCCCCCCC(=O)O)NC(=O)[C@H](CO)NC(=O)[C@H](C(C)C)NC(=O)[C@H](CC2CCCCC2)NC(=O)[C@H](CCN)NC(=O)[C@@H](CC(C)C)NC(=O)[C@H](C)N(C)C1=O [Example 2034] ({CH2CO}-Y(Carboxymethyl)[Phe(4-COOH)]DWL[Bip][aIle][NMeA][dL][Dab][Cha]VSC[AEEA][dOrn][Aun]-OH; thioether N-14) |
| 76.6 nM | Cc1cccc(C[C@@H]2NC(=O)[C@H](CC(=O)O)NC(=O)[C@H](Cc3ccc(C(=O)O)cc3)NC(=O)[C@H](Cc3ccc(OCC(=O)O)cc3)NC(=O)CSC[C@@H](C(=O)NCC(=O)N[C@@H](CC(=O)O)C(=O)NCCOCCOCC(=O)N[C@@H](CC(=O)NCCOCCOCC(=O)NCCCCCCCCCCC(=O)O)C(=O)O)NC(=O)[C@H](CO)NC(=O)[C@H](C(C)C)NC(=O)[C@H](CC(C)C)NC(=O)[C@H](CC(N)=O)NC(=O)[C@@H](CC(C)C)NC(=O)[C@H](C)N(C)C(=O)[C@H](C(C)C)NC(=O)[C@H](Cc3ccc(-c4ccccc4)cc3)NC(=O)[C@H](CC(C)C)NC2=O)c1 [Example 1022] ({CH2CO}-Y(Carboxymethyl)[Phe(4-COOH)]D[Phe(3-Me)]L[Bip]V[NMeA][dL]NLVSCGD[AEEA][βAsp][AEEA][Aun]-OH; thioether N-14) |

Further lines, the compound ahead of its results:

| SMILES | IC50 |
| --- | --- |
| CCC(C)[C@@H]1NC(=O)[C@H](Cc2ccc(-c3ccccc3)cc2)NC(=O)[C@H](C(C)C)NC(=O)[C@H](Cc2c[nH]c3ccccc23)NC(=O)[C@H](CC(=O)O)NC(=O)[C@H](Cc2ccc(O)cc2)NC(=O)[C@H](Cc2ccncc2)NC(=O)CSC[C@@H](C(=O)N[C@H](CN)C(=O)NCCOCCOCC(=O)NCCCCCCCCCCC(=O)O)NC(=O)[C@H](C(C)O)NC(=O)[C@H](C(C)C)NC(=O)[C@H](CC2CCCCC2)NC(=O)[C@H](CCN)NC(=O)[C@@H](CC(C)C)NC(=O)[C@H](C)N(C)C1=O (stereo partly drawn) [Example 2071] ({CH2CO}-[4Pal]YDWV[Bip][Ile(3ξ)][NMeA][dL][Dab][Cha]V[Thr(3ξ)]C[dDap][AEEA][Aun]-OH; thioether N-14) | 20.2 nM |
| Cc1cccc(C[C@@H]2NC(=O)[C@H](CC(=O)O)NC(=O)[C@H](Cc3ccc(OCC(=O)O)cc3)NC(=O)[C@H]([C@@H](C)O)NC(=O)CSC[C@@H](C(=O)N[C@@H](CCN)C(=O)NCCOCCOCC(=O)NCCCCCCCCCCC(=O)O)NC(=O)[C@H](CO)NC(=O)[C@H](C(C)C)NC(=O)[C@H](CC3CCCCC3)NC(=O)[C@H](CCN)NC(=O)[C@@H](CC(C)C)NC(=O)[C@H](C)N(C)C(=O)[C@H](Cc3ccc(OCC(=O)O)cc3)NC(=O)[C@H](Cc3ccc(-c4ccccc4)cc3)NC(=O)[C@H](Cc3ccc(OCC(=O)O)cc3)NC2=O)c1 [Example 1368] ({CH2CO}-TY(Carboxymethyl)D[Phe(3-Me)]Y(Carboxymethyl)[Bip]Y(Carboxymethyl)[NMeA][dL][Dab][Cha]VSC[Dab][AEEA][Aun]-OH; thioether N-14) | 18.1 nM |
| CC(C)C[C@@H]1NC(=O)[C@H](Cc2c[nH]c3ccccc23)NC(=O)[C@H](CC(=O)O)NC(=O)[C@H](Cc2ccncc2)NC(=O)[C@H](Cc2ccc(OCC(=O)O)cc2)NC(=O)CSC[C@@H](C(=O)N[C@@H](CCN)C(=O)NCCCCCCCCCCC(=O)O)NC(=O)[C@H](CCC(N)=O)NC(=O)[C@H](C(C)C)NC(=O)[C@H](CC2CCCCC2)NC(=O)[C@H](CCN)NC(=O)[C@@H](CC(C)C)NC(=O)[C@H](C)N(C)C(=O)[C@H](C(C)C)NC(=O)[C@H](Cc2ccc(-c3ccccc3)cc2)NC1=O [Example 1341] ({CH2CO}-Y(Carboxymethyl)[4Pal]DWL[Bip]V[NMeA][dL][Dab][Cha]VQC[Dab][Aun]-OH; thioether N-14) | 9.1 nM |
| CC(=O)NCCCC[C@@H]1NC(=O)[C@H](C(C)C)NC(=O)[C@H](CC2CCCCC2)NC(=O)[C@H](CCN)NC(=O)[C@@H](CC(C)C)NC(=O)[C@H](C)N(C)C(=O)[C@H](C(C)C)NC(=O)[C@H](Cc2ccc(-c3ccccc3)cc2)NC(=O)[C@H](C(C)C)NC(=O)[C@H](Cc2cccc(C)c2)NC(=O)[C@H](CC(=O)O)NC(=O)[C@H](Cc2ccc(OCC(=O)O)cc2)NC(=O)[C@H](C(C)O)NC(=O)CSC[C@@H](C(=O)N(C)CC(=O)NCCOCCOCC(=O)NCCCCCCCCCCC(=O)O)NC1=O (stereo partly drawn) [Example 2304] ({CH2CO}-[Thr(3ξ)]Y(Carboxymethyl)D[Phe(3-Me)]V[Bip]V[NMeA][dL][Dab][Cha]VK(Ac)C[Sar][AEEA][Aun]-OH; thioether N-14) | 31.3 nM |
| Cc1cccc(C[C@@H]2NC(=O)[C@H](CC(=O)O)NC(=O)[C@H](Cc3ccc(C(=O)O)cc3)NC(=O)[C@H](C(C)O)NC(=O)CSC[C@@H](C(=O)N[C@@H](CCCN)C(=O)N[C@@H](CO)C(=O)NCCCCCCCCCCCC(=O)O)NC(=O)[C@H](CO)NC(=O)[C@H](CCCCN)NC(=O)[C@H](CC3CCCCC3)NC(=O)[C@H](CCN)NC(=O)[C@@H](CC(C)C)NC(=O)[C@H](C)N(C)C(=O)[C@H](Cc3ccc(OCC(=O)O)cc3)NC(=O)[C@H](Cc3ccc(-c4ccccc4)cc3)NC(=O)[C@H](Cc3ccc(OCC(=O)O)cc3)NC2=O)c1 (stereo partly drawn) [Example 2424] ({CH2CO}-[Thr(3ξ)][Phe(4-COOH)]D[Phe(3-Me)]Y(Carboxymethyl)[Bip]Y(Carboxymethyl)[NMeA][dL][Dab][Cha]KSC[Orn]S[12Ado]-OH; thioether N-14) | 108 nM |

same assay, conditions: PE-labeled PD-L1-Ig 20 nM final, Jurkat-hPD-1 cells; read-out: Jurkat HPD1 PDL1 IC50

| IC50 | SMILES |
| --- | --- |
| 2.7 nM | CC(=O)NCCCC[C@@H]1NC(=O)[C@H](C(C)(C)O)NC(=O)[C@H](CC2CCCCC2)NC(=O)[C@H](CCN)NC(=O)[C@@H](CC(C)C)NC(=O)[C@H](C)N(C)C(=O)[C@H](CCC(N)=O)NC(=O)[C@H](Cc2ccc(-c3ccccc3)cc2)NC(=O)[C@H](Cc2ccc(C(=O)O)cc2)NC(=O)[C@H](Cc2cccc(C)c2)NC(=O)[C@H](CC(=O)O)NC(=O)[C@H](Cc2ccc(OCC(=O)O)cc2)NC(=O)[C@H](Cc2ccc(C(F)(F)F)cc2)NC(=O)CSC[C@@H](C(=O)N[C@@H](CCN)C(=O)NCCOCCOCC(=O)NCCCCCCCCCCC(=O)O)NC1=O [Example 2596] ({CH2CO}-[Phe(4-CF3)]Y(Carboxymethyl)D[Phe(3-Me)][Phe(4-COOH)][Bip]Q[NMeA][dL][Dab][Cha][Val(3-OH)]K(Ac)C[Dab][AEEA][Aun]-OH; thioether N-14) |
